{
  "source": "patent US20140227173A1",
  "about": "“CANCER TREATMENT WITH GAMMA-SECRETASE INHIBITORS” (The Johns Hopkins University, priority 2006, published 2014)",
  "system": "GBM20913",
  "assay": "Survival of mice bearing intracranial xenografts of pretreated GBM neurosphere cells",
  "format": "in vivo",
  "settings": "vs vehicle (DMSO) treated cells",
  "note": "Entries after “also recorded” stand apart in the source; their conditions may differ.",
  "data": [
    {"smiles": "O=S(=O)(NC1C2CCC1Cc1ccccc1C2)c1cccs1", "note": "(stereo not drawn) [GSI-18, [11-endo]-N-(5,6,7,8,9,10-hexahydro-6,9-methanobenzo[α][8]annulen-11-yl)-thiophene-2-sulfonamide]", "values": [
      {"measurement": "survival of mice with intracranial xenografts from pretreated cells", "result": "prolonged survival; also recorded: longer survival"}
    ]}
  ]
}
